Patent publication US20210345613A1, “HERBICIDAL PYRIMIDINE COMPOUNDS” (BASF SE, priority 2016, published 2021)

How the values were obtained:
Format in all cases: in vivo
Echinocloa crus-galli [1] = assay: greenhouse herbicidal test, post-emergence treatment; details: post-emergence method, scale from 0 to 100, test period 2 to 4 weeks
Source text: (§1) The seeds of the test plants were sown separately for each species. For the post-emergence treatment, the test plants were first grown to a height of 3 to 15 cm, depending on the plant habit, and only then treated with the active ingredients which had been suspended or emulsified in water. For this purpose, the test plants were either sown directly and grown in the same containers, or they were first grown separately as seedlings and transplanted into the test containers a few days prior to treatment. Depending on the species, the plants were kept at 10-25° C. or 20-35° C., respectively. The test period extended over 2 to 4 weeks. During this time, the plants were tended, and their response to the individual treatments was evaluated. Evaluation was carried out using a scale from 0 to 100. 100 means no emergence of the plants, or complete destruction of at least the aerial moieties, and 0 means no damage, or normal course of growth. A good herbicidal activity is given at values of at least 70 and a very good herbicidal activity is given at values of at least 85. The plants used in the greenhouse experiments were of the following species: [table]

Alopecurus myosuroides = assay: as above; details: post-emergence method, application rate 2000 g/ha, scale from 0 to 100, test period 2 to 4 weeks
Source text: as §1

Setaria viridis = assay: as above; details: post-emergence method, scale from 0 to 100, test period 2 to 4 weeks
Source text: as §1

Echinocloa crus-galli [2] = assay: greenhouse herbicidal test, pre-emergence treatment; details: pre-emergence method, scale from 0 to 100, test period 2 to 4 weeks
Source text: (§2) The seeds of the test plants were sown separately for each species. For the pre-emergence treatment, the active ingredients, which had been suspended or emulsified in water, were applied directly after sowing by means of finely distributing nozzles. The containers were irrigated gently to promote germination and growth and subsequently covered with transparent plastic hoods until the plants had rooted. This cover caused uniform germination of the test plants, unless this had been impaired by the active ingredients. Depending on the species, the plants were kept at 10-25° C. or 20-35° C., respectively. The test period extended over 2 to 4 weeks. During this time, the plants were tended, and their response to the individual treatments was evaluated. Evaluation was carried out using a scale from 0 to 100. 100 means no emergence of the plants, or complete destruction of at least the aerial moieties, and 0 means no damage, or normal course of growth. A good herbicidal activity is given at values of at least 70 and a very good herbicidal activity is given at values of at least 85. The plants used in the greenhouse experiments were of the following species: [table]

Apera spica-venti = assay: as above; details: pre-emergence method, application rate 2000 g/ha, scale from 0 to 100, test period 2 to 4 weeks
Source text: as §2

SMILES: Fc1cccnc1-c1cnc(C2CC2)nc1-c1ccco1 [Ex.9]
- herbicidal activity against ECHCG (Echinocloa crus-galli [1]; application rate 2000 g/ha): good (A good herbicidal activity is given at values of at least 70)

SMILES: Brc1cccnc1-c1cnc(C2CC2)nc1-c1ccco1 [Ex.10]
- herbicidal activity against ALOMY (Alopecurus myosuroides): good (A good herbicidal activity is given at values of at least 70)

SMILES: OC(c1ccccc1)c1nc(C2CC2)ncc1-c1ccccn1 (stereo not drawn) [Ex. 14]
- herbicidal activity against SETVI (Setaria viridis; application rate 2000 g/ha): very good (a very good herbicidal activity is given at values of at least 85)

SMILES: OC(Cc1nc(C2CC2)ncc1-c1ncccc1Cl)c1ccoc1 (stereo not drawn) [Ex.38]
- herbicidal activity against ECHCG (Echinocloa crus-galli [1]; application rate 2000 g/ha): very good (a very good herbicidal activity is given at values of at least 85)
- herbicidal activity against ECHCG (Echinocloa crus-galli [2]; application rate 2000 g/ha): very good (a very good herbicidal activity is given at values of at least 85)

SMILES: OC(Cc1nc(C2CC2)ncc1-c1ncccc1Cl)c1ccccc1 (stereo not drawn) [Ex.36]
- herbicidal activity against ALOMY (Alopecurus myosuroides): very good (a very good herbicidal activity is given at values of at least 85)
- herbicidal activity against ECHCG (Echinocloa crus-galli [1]; application rate 2000 g/ha): very good (a very good herbicidal activity is given at values of at least 85)
- herbicidal activity against SETVI (Setaria viridis; application rate 2000 g/ha): very good (a very good herbicidal activity is given at values of at least 85)

SMILES: Fc1cccnc1-c1cnc(C2CC2)nc1-c1ccoc1 [Ex.11]
- herbicidal activity against ECHCG (Echinocloa crus-galli [1]; application rate 1000 g/ha): good (A good herbicidal activity is given at values of at least 70)

SMILES: Brc1ccsc1-c1cnc(C2CC2)nc1-c1ccco1 [Ex.6]
- herbicidal activity against SETVI (Setaria viridis; application rate 1000 g/ha): very good (a very good herbicidal activity is given at values of at least 85)

SMILES: Cc1nc(C2CC2)ncc1-c1cc(Br)sc1Br [Ex.15]
- herbicidal activity against ECHCG (Echinocloa crus-galli [2]; application rate 500 g/ha): good (A good herbicidal activity is given at values of at least 70)

SMILES: CCC=Cc1nc(C2CC2)ncc1-c1ncccc1Cl [Ex.45]
- herbicidal activity against ALOMY (Alopecurus myosuroides): good (A good herbicidal activity is given at values of at least 70)
- herbicidal activity against APESV (Apera spica-venti): good (A good herbicidal activity is given at values of at least 70)
- herbicidal activity against ECHCG (Echinocloa crus-galli [2]; application rate 2000 g/ha): very good (a very good herbicidal activity is given at values of at least 85)

SMILES: OC1(Cc2nc(C3CC3)ncc2-c2ncccc2Cl)CCCC1 [Ex.26]
- herbicidal activity against SETVI (Setaria viridis; application rate 2000 g/ha): very good (a very good herbicidal activity is given at values of at least 85)

SMILES: C/C=C/c1nc(C2CC2)ncc1-c1ncccc1Cl [Ex.30]
- herbicidal activity against ALOMY (Alopecurus myosuroides): very good (a very good herbicidal activity is given at values of at least 85)
- herbicidal activity against ECHCG (Echinocloa crus-galli [1]; application rate 2000 g/ha): good (A good herbicidal activity is given at values of at least 70)
- herbicidal activity against APESV (Apera spica-venti): very good (a very good herbicidal activity is given at values of at least 85)
- herbicidal activity against ECHCG (Echinocloa crus-galli [2]; application rate 2000 g/ha): very good (a very good herbicidal activity is given at values of at least 85)

SMILES: Brc1cccnc1-c1cnc(C2CC2)nc1-c1ccco1 [Ex.8]
- herbicidal activity against APESV (Apera spica-venti): very good (a very good herbicidal activity is given at values of at least 85)

SMILES: Clc1cccnc1-c1cnc(C2CC2)nc1C=Cc1ccoc1 [Ex.39]
- herbicidal activity against ALOMY (Alopecurus myosuroides): good (A good herbicidal activity is given at values of at least 70)
- herbicidal activity against ECHCG (Echinocloa crus-galli [1]; application rate 2000 g/ha): very good (a very good herbicidal activity is given at values of at least 85)
- herbicidal activity against APESV (Apera spica-venti): very good (a very good herbicidal activity is given at values of at least 85)
- herbicidal activity against ECHCG (Echinocloa crus-galli [2]; application rate 2000 g/ha): very good (a very good herbicidal activity is given at values of at least 85)

SMILES: Cc1occc1-c1nc(C2CC2)ncc1-c1ncccc1F [Ex.13]
- herbicidal activity against ECHCG (Echinocloa crus-galli [1]; application rate 2000 g/ha): good (A good herbicidal activity is given at values of at least 70)
- herbicidal activity against SETVI (Setaria viridis; application rate 2000 g/ha): good (A good herbicidal activity is given at values of at least 70)

SMILES: Clc1cccnc1-c1cnc(C2CC2)nc1C=C1CCCCC1 [Ex.42]
- herbicidal activity against ECHCG (Echinocloa crus-galli [1]; application rate 2000 g/ha): good (A good herbicidal activity is given at values of at least 70)
